Earlier results as cited in patent US20190216738A1, “PIRFENIDONE-CONTAINING TABLET AND CAPSULE FORMULATION” (Laurus Labs Ltd, priority 2018, published 2019).

## Cc1ccc(=O)n(-c2ccccc2)c1 [Pirfenidone]
1.0 N HCl, water and 1.0 N NaOH
  solubility: sparingly soluble
water, 25° C., pH independent
  dissolution in water (solubility): 19 mg/mL
